Assays:
[1] = system: Lewis rats with adjuvant induced arthritis; test: Adjuvant-induced arthritis (AIA) in Lewis rats: paw swelling, erythema, clinical and histological scores; assay type: in vivo, rat
rat ClA model = test: Rat ClA model, paw swelling and erythema, disease severity; assay type: in vivo; settings: antibody 3 mg/kg i.v., compounds 30, 10, 3 mg/kg b.i.d.
Description: Anti alpha-4 antibodies, and the compounds of Formulae W and Y were tested in the rat ClA model according to the methods shown in Table 14 below.
(§1) The results in FIG. 6 show the results for compounds. There were 8 rats per group in the efficacy study. Paw swelling and erythema were measured daily and the tarsal paws collected for histological analysis at the end of the study. Plasma which was heparinized was collected at 12 hours (i.e., the trough level) and at 4 horus after the last dose for compound measurement (FIG. 6).

[2] = rat, in vivo, 3 mg/kg
[3] = system: DBA/1 LacJ mice with collagen-induced arthritis; test: Murine collagen-induced arthritis (ClA) model, clinical scores; assay type: in vivo, mouse; settings: therapeutic ClA model, 100 mg/kg b.i.d. (Table 12)
Description: A murine collagen-induced arthritis (ClA) model was used to examine the pharmacological effect of anti-alpha4-integrin antibodies prophylactically, semi-therapeutically and therapeutically. Dosing of the antibody was begun on day 20 for the prophylactic animals. […] The results seen with the treatment of the ClA mice is seen in FIG. 1.
Peripheral blood leucocytes (PBLs) from mice treated with anti-alpha4, anti-α4β7 and anti-VCAM1 antibodies were collected at 4, 12 and 24 hours after antibody dosing. Cells were stained with goat anti-rat antibodies to confirm antibodies in circulation.
(§2) 100 DBA/1 LacJ male mice, ages 6-8 weeks were obtained from Jackson Laboratories. The mice were immunized at Day 0 as follows: 100 μg bovine type II collagen (Chondrex) in Complete Freund's adjuvant (CFA, Sigma) were injected into the mice. At Day 21, another 100 μg bovine type II collagen (Chondrex) in Incomplete Freund's Adjuvant (IFA, Sigma) was injected into the mice. Treatment with the compound began when the animals had the disease (i.e., 100% therapeutic).
The mice are scored daily after the boost. […] Treatment continued for 3-weeks-of dosing. Dosing was every other day for the antibody group and control group.
DBA/1 LacJ mice, aged 8 weeks will be immunized with bovine collagen (100 μg/mice) in CFA and re-challenge on day 21 in IFA.

[4] = Blood levels of compound in murine ClA model; assay type: in vivo; settings: male, DBA/1 LacJ, mouse, whole blood, 100 mg/kg b.i.d., 16 hours after dosing
Description: The effect of the compound of Formula P was evaluated in a therapeutica ClA model.
as §2

[5] = Blood/plasma levels of compound in rat ClA model (relative to receptor saturation); assay type: in vivo; settings: at 12 hours, all concentrations tested
Description: as §1

[6] = Plasma/blood compound levels in AIA rats (PK, relative to receptor saturation); settings: 12 hours after dosing, all concentrations tested
VLA-4 = VLA-4 (Homo sapiens, UniProt P13612); settings: cited from earlier work
[7] = system: human lymphocyte binding to rat brain cells; settings: rat brain cells stimulated with tumor necrosis factor; cited from earlier work

**Q.** For `Cc1ccc(S(=O)(=O)N2CCC[C@H]2C(=O)N[C@@H](Cc2ccc(OC(=O)N3CCN(CCO)CC3)cc2)C(=O)OC(C)(C)C)cc1`, which melting point is on record?
**A.** 158 to 160 °C

**Q.** Which results are given for `CC(C)OC(=O)[C@H](Cc1ccc(OC(=O)N2CCN(C)CC2)cc1)NC(=O)[C@H]1N(S(=O)(=O)c2cccnc2)CSC1(C)C` [Formula N, N-[N-(3-pyridinesulfonyl)-L-3,3-dimethyl-4-thiaprolyl]-O-[I-methylpiperazin-4-ylcarbonyl]-L-tyrosine isopropyl ester]?
**A.** clinical and histological scores ([1]; AIA animal model, 30 mg/kg b.i.d.): ameliorate clinical and histological scores; disease severity ([1]; AIA rats, 3 mg/kg): no effect on disease severity; disease severity (rat ClA model): neither the compound of Formula N nor Y had any impact on disease severity; compound present in the blood relative to receptor saturation [2]: below receptor saturation

**Q.** Which results are given for `CCN(CC)c1ncc(N(CC)S(=O)(=O)c2ccc(Cl)cc2)c(NC(Cc2ccc(OC(=O)N3CCCC3)cc2)C(=O)O)n1` (stereo not drawn) [Formula P]?
**A.** disease ([1]; AIA rats, all concentrations tested (30, 10, 3 mg/kg b.i.d. p.o.)): ameliorate disease at all concentrations tested; disease progression [3]: no effect on disease progression; concentration at 16 h [4]: 1000 ng/mL; blood levels of the compound relative to receptor saturation [5]: above receptor saturation; levels of the compound relative to receptor saturation [6]: above receptor saturation

B1: mu MAb 21.6: mouse monoclonal antibody specific for the α4 subunit of VLA-4; donor immunoglobulin of the humanized antibodies (antibody, V domains shown)
VH: EVQLQQSGAELVKPGASVKLSCTASGFNIKDTYIHCVKQRPEQGLEWIGRIDPANGYTKYDPKFQGKATITADTSSNTAYLQLSSLTSEDTAVYFCAREGYYGNYGVYAMDYWGQGTSVTVSSAK
VL: DIQMTQSPSSLSASLGGKVTITCKTSQDINKYMAWYQHKPGKRPRLLIHYTSALQPGIPSRFSGSGSGRDYSFNISNLEPEDIATYYCLQYDNLWTFGGGTKLEIK
**Q.** For B1, which “binding affinity for VLA-4” value (VLA-4) is on record?
**A.** about 10^9 M^−1

**Q.** What about the “human lymphocyte binding to tissue cultures of rat brain cells” value [7] of the same molecule?
**A.** inhibit

Source: patent US20050074451A1, “Methods and compositions for treating rheumatoid arthritis” (Elan Pharmaceuticals, Inc., priority 2003, published 2005)
